Source: article PMC3446843 (Toxicological Sciences, 2012)

Legend:
[1] = test system: isolated mouse liver mitochondria; assay: Loss of mitochondrial transmembrane potential; type: biochemical; details: 20% of maximal loss of ΔΨm (50µM mClCCP = 100%), 30-min incubation
[2] = test system: isolated mouse liver mitochondria; assay: Cytochrome c release; type: biochemical; details: without Ca2+ pulse
[3] = test system: isolated mouse liver mitochondria, complex I; assay: Oxygen consumption through complex I; details: inhibition of oxygen consumption, malate + glutamate + ADP; 2µM rotenone = 100%
[4] = test system: isolated mouse liver mitochondria; assay: Mitochondrial swelling; details: without Ca2+ pulse
[5] = short incubation of isolated mitochondria; ref Kamel et al. (2012); cited from earlier work

Row | SMILES | ΔΨm loss EC20 [1] [µM] | induction of cytochrome c release (in words) [2] | O2 cons CI EC20 [3] [µM] | induction of mitochondrial swelling (in words) [4] | compound metabolized [5] [%]
1 | O=C(O)Cc1ccccc1Nc1c(Cl)cccc1Cl [Diclofenac] | 137.9 | unable to induce | 29.8 |  | 
2 | C1CCC(C(CC2CCCCN2)C2CCCCC2)CC1 (centres unmarked) [Perhexiline] | 3.2 | induced mitochondrial swelling and cytochrome c release when very low concentrations were used | 87.7 | induced mitochondrial swelling and cytochrome c release when very low concentrations were used | 
3 | CNS(=O)(=O)Cc1ccc2[nH]cc(CCN(C)C)c2c1 [Sumatriptan] | 248.3 |  | > 400 |  | 30
4 | Cc1c(C)c2c(c(C)c1O)CCC(C)(COc1ccc(CC3SC(=O)NC3=O)cc1)O2 (centres unmarked) [Troglitazone] | 3.4 | unable to trigger | 6.0 | unable to trigger | 
